Experimental data reported in patent US7741436B2, “Biologically active peptides and their use for repairing injured nerves” (priority 2001, dated 2010).

Tests used:
[1] = test system: rat cerebellar granule neurons; assay: Electrophysiology: voltage-clamped whole-cell patch recordings of currents induced by laminin-1-derived peptides and fusion proteins; format: cell-based; settings: whole-cell patch clamp, neurons on laminin-1 substratum
Description: Sixteen-day pregnant Sprague-Dawley female rats were obtained from Taconic Farms, and maintained at the animal facility of National Institute of Alcohol Abuse and Alcoholism (NTH), fed with NTH-31 diet, containing 20,000 IU/kg vitamin A after autoclaving. The rats were allowed to give birth, and cerebellar tissues of 3-day-old female pups were aseptically isolated as described previously (Matsuzawa et al., 1996a). A suspension of single cells was obtained by trypsinizing the cerebella as described elsewhere (Liesi and Wright, 1996), after which 10^5 cells were plated on 22 mm glass coverslip pre-coated with laminin-1. The cells were incubated in an atmosphere of 95% air/5% CO2 at +37° C. in RPMI 1640 culture medium supplemented with penicillin and streptomycin and 200 μM L-glutamine. After 24 hrs, the cells were used for electrophysiology.
Recordings were done at room temperature using a List EPC-7 patch-clamp amplifier in voltage-clamped whole-cell patch configuration as described previously (Liesi and Wright, 1996). Pipettes were pulled from borosilicate glass and lightly fire polished. Experiments were performed at room temperature. Whole-cell currents were recorded on a Gould 2400S strip chart recorder. Cell membrane potential was clamped at −40 mV unless otherwise noted. All bath solutions were applied through pinch-valves that controlled the flow from multiple reservoirs to a single 200 μm ID barrel of fused silica. Standard bath solution was RPMI 1640, buffered with 10 mM HEPES (pH 7.4). The standard pipette solution contained (in mM): CsMeSO4 100, CsCl 15, BAPTA 5, HEPES 10 (pH KOH-adjusted to 7.2). Tests for reversal potentials were conducted in low K^+ bath solution containing (in mM): NaCl 150, KCl 5, CaCl2 1, HEPES 10 (pH adjusted to 7.2 with NaOH) and a high K^+ bath solution, containing (in mM): NaCl 115, KCl 40, CaCl2 1, HEPES 10 (pH adjusted to 7.2 with NaOH). All bath solutions contained 300 nM TTX. […] Nernst reversal potentials were calculated according to Hille (1992). […]

[2] = test system: spinal cord injuries of adult male rats; assay: Spinal cord injuries of adult male rats: complete lumbar spinal cord transection, mini pump administration; format: in vivo, Sprague-Dawley rats
Method: Complete transections of the lumbar spinal cord under deep pentobarbiturate anesthesia were made to 40 adult male Sprague-Dawley rats. Osmotic mini pumps were implanted subcutaneously to allow continuous flow of the KDI peptide (KDI-group) used at pre-tested concentrations (10-100 μg/ml) or a placebo (placebo-group). Morphine was given to both of the groups to alleviate the postoperative pain. The animals underwent weekly tests of their motor function during a period of three months. The motor score testing was carried out using a standard set of tests of motor evaluation (walking, tow-spread, placing and withdrawal). The mini pumps initially provided the drugs for 30 days, and when feasible, additional experiments were carried out with prolonged (up to 3 months) application. After 3 months, the animals in each group were euthanized and spinal cords were either deep frozen for immunocytochemistry, biochemistry and RNA-work, or fixed in 4% paraformaldehyde for in situ hybridization and histological analysis of recovery. […]
Preliminary motor scores were obtained from animals treated with KDI, and from control animals. […] The scores for each animal were calculated by adding up the walking scores obtained within a 12 week follow-up-time after the operation. […] The scores of six animals in placebo-group and six-animals, in the KDI-group were analysed and statistically compared. […]

human CNS neurons = assay: Attachment and neurite outgrowth of human embryonic CNS neurons on synthetic peptides coupled to glass; format: cell-based; settings: 0.1-10 μg/ml, peptide covalently cross-linked to glass, 24 hrs
Method: The cells were dissociated by trituration in a sterile culture medium (RPMI 1640) containing penicillin (100 U/ml), streptomycin (100 μg/ml) and 200 μM L-glutamine. The dissociated cells were plated on glass coverslips pre-coated (Liesi et al., 1989) with mouse laminin-1 (Boehringer-Mannheim, Germany) or with the peptides KDI-gc and RDIAEIIKDI-gc (SEQ ID NO: 1), as described elsewhere (Matsuzawa et al., 1996b). The peptides were from the Multiple Peptide Systems (La Jolla, Calif.). The cultures were maintained for 24 hrs, fixed in 2% paraformaldehyde, and processed for immunocytochemistry.
Immunocytochemistry for neuron specific tubulin isoform TUJ1 was performed as described elsewhere (Liesi et al., 2001). In short, the cells were permeabilized in methanol for 5 min at −20° C., washed in PBS and incubated with monoclonal TUJ1-antibodies for 1 hr at room temperature. The antibody was of high specificity and was used at 1:500 dilution. After immunocytochemistry, the coverslips were mounted in PBS:glycerol (1:1) and viewed with Olympus Provis fluorescence microscope with appropriate filter combinations.

Substance: KDI
- induction of currents in cerebellar granule neurons [1]: induced currents
- connective tissue scar at the dorsal pole of the spinal cord vs placebo ([2]; adult rats three months after injury, stereomicroscopic images): considerably smaller
- mean motor score (sum of walking scores) ([2]; rats with total spinal cord transection, 12 week follow-up, six animals, ±SEM, placebo 11±2.4, normal animal 120, P 0.0022, preliminary): 78±5.8
- attachment and neurite outgrowth of human CNS neurons (human CNS neurons): supported attachment and neurite outgrowth
